Columns and labels:
[1] = system: PANC-1 cells; experiment: Immunofluorescence staining of RAS localisation; assay type: cell-based, human; details: 18 h, anti-pan RAS antibody, PD3 10 µM, deltarasin 2, 5, 10 µM
From the text: Finally, we investigated whether PD3 changes KRAS localisation by inhibiting the interaction of KRAS with PDEδ in human pancreatic cancer cells. PDEδ binds the farnesylated RAS proteins and stabilises them[19]. Therefore, PDEδ activity leads to the accumulation of RAS at the plasma membrane (PM); conversely, downmodulation of PDEδ enhances RAS diffusion in the cytoplasm. To confirm the effect of PD3 on the relocalization of RAS, we carried out immunofluorescence staining of PANC-1 cells with an anti-RAS antibody (Figure 6). […] Conversely, in the DMSO-treated control group, RAS was mainly localised in the PM of PANC-1 cells. […] It is supposed that PD3 can induce changes in RAS localisation from the plasma membrane by interrupting the protein–protein interaction of KRAS-PDEδ.
Figure 6. Immunofluorescence of PANC-1 cells with an anti-Pan-RAS antibody (red). DMSO was used as a negative control, and deltarasin was used as a positive control. Ex: 633 nm, Em: ≥638 nm. The scale bar represents 20 µm.
PANC-1 cells were seeded with cover slip in a 6-well cell culture plate (SPL life Science, Gyeonggi-do, Republic of Korea) and incubated for 24 h under 37 °C and 5% CO2 prior to the experiment. […] The fluorescence images were detected by confocal microscope (TCS-SP8 confocal laser scanning microscope, Leica, Germany). Fluorescence signal was obtained by excitation at 633 nm and emission at ≥638 nm.

[2] = biological target: T1, PDEδ (Homo sapiens, UniProt O43924); experiment: Fluorescence measurement after incubation with recombinant PDEδ; assay type: binding; details: 2 µM PD + 2 µM PDEδ, 20 mM Tris buffer pH 7.5, Ex 280 nm
T1 construct: made in house; host or cells: E. coli BL21(DE3)
Protocol: With the structural rationale for the binding to PDEδ from the molecular docking studies, we measured the fluorescence responses of the PDs after incubation with recombinant PDEδ proteins to confirm the binding of PDs to PDEδ. We envisioned that the hydrophobic environment of the prenyl binding pocket of PDEδ, as depicted in Figure 1(C), could enhance the fluorescent signal due to the solvatochromic characteristics of IQ scaffold. In addition, tryptophan residues near the binding site of PDEδ and the fluorophore of PDs could act as a fluorescence resonance energy transfer (FRET) pair. […] All recoded spectra of PDs are depicted in Supplemental Figure S1. To compare the binding abilities of PD derivatives to the target protein, same concentration (2 µM) of PD compound was treated and then fluorescence intensity was measured in Spectrofluorometer FP-6500.
The fluorescence changes were measured to determine the interaction between PD compounds and PDEδ protein. The fluorescence spectra were obtained under Tris buffer [20 mM Tris-HCl (pH 7.5), 100 mM NaCl] at 20 °C. The concentration of PDEδ was 2 µM. After the addition of 2 µM PD compound, the mixture was gently inverted 3 times and then incubated for 1 min. The emission spectra were recorded on Spectrofluorometer FP-6500 (JASCO, Tokyo, Japan) at Ex 280 nm. The band width was 3 nm for excitation and 5 nm for emission.

[3] = biological target: T1, PDEδ; experiment: Native gel electrophoresis with in-gel fluorescence (target specificity); assay type: binding; details: 5 or 50 µM PD3, PDEδ-overexpressing bacterial lysate or purified PDEδ, 12% native gel
Protocol: We also conducted native gel electrophoresis to further verify the specific binding of PD3 to native PDEδ using in-gel fluorescence scanning. […] We assumed that PD3 bound within the tertiary structure would be identified on the native gel. PD3 was incubated with bacterial lysate containing the overexpressed PDEδ protein (Figure 4(C,D), lanes 1–3) or purified PDEδ (Figure 4(C,D), lanes 4–6), and then these samples were run in a native gel to avoid denaturation of the protein. The in-gel fluorescence shown in Figure 4(C) (Ex: 312 nm, Em: 585–625 nm) was compared to the same gel stained with Coomassie that visualised the protein bands (Figure 4(D)), which confirmed the formation of the PD3-target protein complex. As expected, the fluorescence band was detected at the location of PDEδ and only detected in the lane with PD3 (lanes 2, 3, 5, and 6).
PD3 (5 or 50 µM) was added to the bacterial lysate (390 µM) or purified PDEδ protein (22.9 µM) and the mixture was incubated for 2 h at 4 °C. The samples were loaded on each lane and separated by 12% native PAGE in a running buffer [25 mM Tris-HCl (pH 8.0), 500 mM NaCl, 10 mM imidazole, 10% Glycerol] with 1/4 pellet of protease inhibitor (Roche, Penzberg, Upper Bavaria, Germany). The gels were run at 70 V for 2.5 h, followed by in-gel fluorescence measurement. The same gel was stained by Coomassie brilliant blue to visualise protein bands.

T1 sequence (O43924 whole entry): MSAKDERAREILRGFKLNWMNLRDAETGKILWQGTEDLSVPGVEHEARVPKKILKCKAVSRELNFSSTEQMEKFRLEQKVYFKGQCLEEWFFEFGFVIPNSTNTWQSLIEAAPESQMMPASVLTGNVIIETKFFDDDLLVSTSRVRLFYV

## Cc1ccc(-c2nc3ccccc3c3cc4ccccn4c23)cc1 [PD3, 6-(p-tolyl)indolizino[3,2-c]quinoline]
[1]
  RAS localisation at the plasma membrane (PM): red fluorescence was effectively reduced at the PM
[2]
  Fluorescence response upon incubation with PDEδ: exceeded the maximum detection limit of Spectrofluorometer
[3]
  Binding specificity to PDEδ by in-gel fluorescence: specifically binds to PDEδ in bacterial lysates

From PMC9225715, “Development of PD3 and PD3-B for PDEδ inhibition to modulate KRAS activity” (Journal of Enzyme Inhibition and Medicinal Chemistry, 2022)
